Assay results taken from patent US20200290950A1, “ALKAMIDE COMPOUNDS AND USES THEREOF” (NORTH CAROLINA STATE UNIVERSITY, priority 2017, published 2020).

Legend:
[1] = system: RBL-2H3 cells; assay: TNF-α production, ELISA, 8 hrs (Example 1); format: cell-based, rat; conditions: 1 μM A23187, all doses tested
Method: (§1) FIGS. 6A-6B. A15 inhibits de novo production of TNF-α and PGE2 from RBL-2H3 cells. RBL-2H3 cells were plated and incubated overnight prior to stimulation. Cells were stimulated with 1 μM A23187 in combination with the indicated doses of A15. Supernatants were collected 8 hrs later and TNF-α (FIG. 6A) or PGE2 (FIG. 6B) levels were measured using ELISA kits. Data shown are the means±SEM from 3 independent experiments. Statistical analysis was performed using a one-way ANOVA with Dunnett's post-hoc test, *p<0.05, **p<0.01, ***p<0.001.
(§2) Bone marrow cells were isolated from the femurs of 6-8 week old C57BL/6 mice and cultured in RPMI-1640 containing 10% heat-inactivated FBS, non-essential amino acids, HEPES buffer, sodium pyruvate, 100 U/mL penicillin, 100 μg/mL streptomycin, 5 ng/mL mIL-3, and 5 ng/mL mSCF for 4-6 weeks until mature, bone marrow-derived mast cells (BMMCs) were obtained, as described previously (Kuehn et al., 2010). Differentiation into >98% mast cells was confirmed through toluidine blue staining (1%, pH 1). RBL-2H3, RAW 264.7, and Jurkat cells were obtained from the American Type Culture Collection (Manassas, Va.). […] Optical density was determined using a Synergy HT microplate reader (BioTek Instruments, Inc, Winooski, Vt.). […]

[2] = system: RBL-2H3 cells; assay: PGE2 production, EIA, 8 hrs; format: cell-based, rat; conditions: 1 μM A23187, only at 100 μM
Method: as §1, §2

[3] = target: T1, TRPV1 (Mus musculus, UniProt Q704Y3); assay: Calcium response of DRG neurons to capsaicin; format: cell-based; conditions: cultured DRG neurons, fluorescence microscopy
T1 construct: The receptors TRPA1 and TRPV1 are expressed on neurons; from tissue; host or cells: primary dorsal root ganglion neurons from mice
From the text: FIG. 11. Calcium response from DRG sensory neurons to alkamide of transient receptors. Mustard a TRPA1-receptor agonist activates DRG neurons in gray (A) and capsaicin, an agonist for TRPV1-receptors in the DRG neurons in red (B). Ligand A15 inhibits both TRPA1 and TRPV1 receptors activation in orange; however, 85Y a synthetic ligand only reduces the inhibition of TRPA1 but not TRPV1 receptors in blue. Total number of neurons (n)=135-145; p≤0.05.
Several different model systems were utilized for these experiments. In one model, dorsal root ganglia were obtained from mice and the neurons cultured in vitro. The neurons were then stimulated in the presence/absence of A15 and YM8-85 and the calcium responses monitored by fluorescence microscopy. In the second model, the alkamides were applied to mouse skin in mineral oil. The reactions of these mice to heat, cold, and tactile stimulation was then compared with mice that had not received treatment with A15. […] Alkamides were applied to sensitized animals and then ear swelling and bouts of scratching were monitored.
In vitro DRG neuron responses. […] Neurons were stimulated with mustard (allyl isothiocyanate) (A) an agonist for the receptor TRPA-1 or capsaicin (B) an agonist for the receptor TRPV-1 and calcium responses were measured in individual neurons by fluorescence microscopy. […]

[4] = Paw withdrawal latency to heat, cold and touch after topical administration; format: in vivo; conditions: topical in mineral oil on mouse paws
Method: FIG. 12. Antinociceptive effect of topical administration of alkamide A15. Measured paw withdrawal latency to Hargreave's (A) cold assay using dry ice (B) and touch using von-Frey (C). Data were analyzed using parametric evaluation (AUC).
Several different model systems were utilized for these experiments. In one model, dorsal root ganglia were obtained from mice and the neurons cultured in vitro. The neurons were then stimulated in the presence/absence of A15 and YM8-85 and the calcium responses monitored by fluorescence microscopy. In the second model, the alkamides were applied to mouse skin in mineral oil. The reactions of these mice to heat, cold, and tactile stimulation was then compared with mice that had not received treatment with A15. In a third model, mice were sensitized to the chemical compound toluene-2,4-diisocyanate (TDI). TDI is an industrial chemical which causes hypersensitive skin lesions and itching in exposed humans and animals. The physiological response to TDI is complex involving type 2 T lymphocytes, cytokines, mast cells, and neurons. Alkamides were applied to sensitized animals and then ear swelling and bouts of scratching were monitored.
In vivo responses to painful stimuli. A15 was tested with mice to determine whether the in vitro inhibitory responses noted in FIG. 11 are also seen in vivo. A15 was mixed in mineral oil and added to mouse paws prior to stimulation with heat, cold, or touch. […] Sensations of touch are mediated by distinct families of mechanoreceptors which are apparently unaffected by A15.

[5] = system: RBL-2H3 cells; assay: TNF-α ELISA, 18 hrs (Example 3); format: cell-based, rat; conditions: 1 μM A23187, 18 hours
Method: FIGS. 25A-25B. […] RBL-2H3 cells were plated overnight and stimulated with 1 μM A23187 in the absence or presence of each alkamide for 18 h. Culture supernatants were analyzed for TNF-α levels by ELISA and experiments were performed in triplicate (FIG. 25A). Percent inhibition of TNF-α secretion for each alkamide listed in FIG. 25B. *P<0.05, **P<0.01, ***P<0.001, one-way ANOVA with Dunnett's post hoc test compared to vehicle (FIG. 25A) or A15 (FIG. 25B).
RBL-2H3 cells (1.0×10^5 cells) were incubated overnight in a 24 well plate at 37° C. with 5% CO2. Cells were washed with 1×PBS and stimulated with 1 μM A23187 for 18 hrs in the absence or presence of each compound. The cells were centrifuged (1200×g, 5 min) and the supernatants were collected. The concentration of TNF-α in the supernatants were determined using the TNF-α ELISA kit.

[6] = system: RAW 264.7 cells; conditions: LPS-stimulated RAW 264.7 cells, literature; cited from earlier work

T1 sequence (Q704Y3 whole entry): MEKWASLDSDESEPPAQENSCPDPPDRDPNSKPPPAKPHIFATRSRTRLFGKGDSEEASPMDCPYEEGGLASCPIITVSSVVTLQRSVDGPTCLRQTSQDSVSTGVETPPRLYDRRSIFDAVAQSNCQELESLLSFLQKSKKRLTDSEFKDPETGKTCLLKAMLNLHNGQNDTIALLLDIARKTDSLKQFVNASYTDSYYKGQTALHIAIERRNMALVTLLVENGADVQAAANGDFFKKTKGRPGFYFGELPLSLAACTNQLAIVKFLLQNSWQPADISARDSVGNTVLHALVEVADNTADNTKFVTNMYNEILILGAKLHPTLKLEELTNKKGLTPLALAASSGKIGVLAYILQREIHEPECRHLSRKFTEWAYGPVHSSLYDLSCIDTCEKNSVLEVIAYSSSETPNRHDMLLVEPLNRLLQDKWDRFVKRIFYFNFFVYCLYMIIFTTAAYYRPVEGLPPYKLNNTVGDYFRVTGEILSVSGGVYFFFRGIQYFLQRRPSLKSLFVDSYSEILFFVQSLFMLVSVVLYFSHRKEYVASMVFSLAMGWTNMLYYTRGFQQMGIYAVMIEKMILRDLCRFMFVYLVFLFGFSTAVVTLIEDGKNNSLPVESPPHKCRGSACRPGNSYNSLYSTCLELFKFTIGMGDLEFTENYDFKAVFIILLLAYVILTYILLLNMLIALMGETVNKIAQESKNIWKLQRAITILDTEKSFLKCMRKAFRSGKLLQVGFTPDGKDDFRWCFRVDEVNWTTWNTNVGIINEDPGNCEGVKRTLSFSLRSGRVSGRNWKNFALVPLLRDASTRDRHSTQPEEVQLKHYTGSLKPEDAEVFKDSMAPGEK

In the case of `CCCCCCC/C=C/C=C/C(=O)NCC(C)C` [A15, (2E,4E)-N-Isobutyldodeca-2,4-dienamide], the “production of TNF-α” value [1] is reported as “significant, dose dependent inhibition”, the “production of PGE2” value [2] is reported as “weakly inhibited” and the “DRG neuron calcium response to capsaicin (TRPV1 agonist)” value [3] is reported as “inhibited”. For the same compound, the “paw withdrawal latency to cold (dry ice)” value [4] was “increased withdrawal latency”, the “paw withdrawal latency to heat (Hargreave's)” value [4] was “increased withdrawal latency” and the “touch latency (von-Frey)” value [4] was “did not affect touch latency”. The “percent inhibition of TNF-α secretion” value [5] was 79% and the TNF-α production [6] was “best inhibitors”.
